Assay [1] concerns the target T1, human κ-opioid receptor (OPRK1) (Homo sapiens, UniProt P41145). The assay can be described thus: forskolin-induced cAMP accumulation assay, KOR antagonist.
Assay [2] addresses T2, human μ-opioid receptor (OPRM1) (Homo sapiens, UniProt P35372).
T2 construct: host or cells: cAMP Hunter CHO-K1 (Chinese hamster ovary) cells
The assay can be described thus: cell-based. As to conditions: for EC50: MOR Agonist EC50 ± SEM; for Emax: read-out: MOR Agonist %Emax ± SEM.

Assay [3] addresses T1, human κ-opioid receptor (OPRK1). The assay is described as follows: forskolin-induced cAMP accumulation assay, KOR agonist. As to conditions: for EC50: KOR Agonist EC50 ± SEM, inhibition of forskolin-induced cAMP accumulation, CHO-K1 cells expressing human KOR; for Emax: CHO-K1, read-out: KOR Agonist %Emax ± SEM, CHO-K1 cells expressing human KOR, normalized to the forskolin control.

In assay [4] the target is T3, human δ-opioid receptor (OPRD1) (Homo sapiens, UniProt P41143). The assay is described as follows: forskolin-induced cAMP accumulation assay, DOR agonist. The settings on record: for Emax: CHO-K1, read-out: DOR Agonist %Emax ± SEM, CHO-K1 cells expressing human DOR; for EC50: DOR Agonist EC50 ± SEM, inhibition of forskolin-induced cAMP accumulation. For orientation: cAMP levels reflect the balance of adenylyl cyclase and phosphodiesterase activity.
T3 sequence (P41143 whole entry): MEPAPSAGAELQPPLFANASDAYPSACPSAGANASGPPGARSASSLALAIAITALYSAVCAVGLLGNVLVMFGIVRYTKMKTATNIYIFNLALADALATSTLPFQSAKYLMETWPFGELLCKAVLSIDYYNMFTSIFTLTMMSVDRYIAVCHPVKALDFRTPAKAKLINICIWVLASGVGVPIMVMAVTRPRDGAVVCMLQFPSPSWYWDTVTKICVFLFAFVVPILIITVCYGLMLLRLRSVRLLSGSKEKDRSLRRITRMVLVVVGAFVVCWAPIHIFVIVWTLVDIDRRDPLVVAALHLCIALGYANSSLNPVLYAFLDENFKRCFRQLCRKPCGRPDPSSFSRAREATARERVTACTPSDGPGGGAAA

For assay [5], the target named is T3, human δ-opioid receptor (OPRD1). The assay is described as follows: forskolin-induced cAMP accumulation assay, DOR antagonist. The assay is classed as cell-based. More on the design: host or cells: cAMP Hunter CHO-K1 (Chinese hamster ovary) cells. The settings on record: for DOR Antagonist %Imax ± SEM: CHO-K1 human DOR, versus EC50 of SNC80, Imax normalized to naltrexone.

The mark [6] stands for this setting: normalized to the forskolin control.
The mark [7] stands for this setting: CHO-K1 cells expressing human DOR.

As a reminder, the IC50 is the concentration at which inhibition is half-maximal. Low values mean greater potency, high ones weaker potency. Usually EC50 stands for the concentration that produces a half-maximal response. A higher EC50 goes with a need for much substance. One may read the Emax as the size of the effect at its maximum, as opposed to the concentration needed.

“And” between values parts separate entries of the source, which are not always exact repeats. Equal values may be shown once. Some results are limits rather than exact numbers.

T1 sequence (P41145 whole entry): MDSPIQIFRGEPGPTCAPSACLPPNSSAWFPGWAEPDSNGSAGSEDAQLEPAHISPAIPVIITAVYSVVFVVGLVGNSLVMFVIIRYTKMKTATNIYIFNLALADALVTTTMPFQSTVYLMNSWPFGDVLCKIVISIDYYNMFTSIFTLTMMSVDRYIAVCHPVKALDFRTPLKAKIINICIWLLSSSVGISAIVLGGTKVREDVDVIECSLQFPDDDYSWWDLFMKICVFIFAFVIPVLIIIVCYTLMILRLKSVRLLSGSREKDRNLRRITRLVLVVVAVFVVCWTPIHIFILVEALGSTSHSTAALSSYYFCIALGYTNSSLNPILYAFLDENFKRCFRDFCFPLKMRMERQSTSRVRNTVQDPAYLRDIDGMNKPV
T2 sequence (P35372 whole entry): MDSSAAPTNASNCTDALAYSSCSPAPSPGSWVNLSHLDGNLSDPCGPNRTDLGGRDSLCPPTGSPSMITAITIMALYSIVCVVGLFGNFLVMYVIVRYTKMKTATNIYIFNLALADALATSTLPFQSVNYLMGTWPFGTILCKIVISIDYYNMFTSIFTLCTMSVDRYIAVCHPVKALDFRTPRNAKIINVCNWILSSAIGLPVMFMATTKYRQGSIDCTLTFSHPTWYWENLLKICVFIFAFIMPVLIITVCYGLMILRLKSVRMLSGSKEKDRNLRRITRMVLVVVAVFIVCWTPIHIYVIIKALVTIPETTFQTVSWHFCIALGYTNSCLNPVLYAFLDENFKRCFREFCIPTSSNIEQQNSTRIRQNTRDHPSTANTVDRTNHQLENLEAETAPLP

On to `CNC[C@H]1[C@H]2CCC[C@]1(c1cccc(O)c1)CCN2CCc1ccccc1` [1R,5S,9S-53, 3-((1R,5S,9S)-9-((Methylamino)methyl)-2-phenethyl-2-azabicyclo[3.3.1]nonan-5-yl)phenol], for which the IC50 is above 10000 nM in assay [1] and 1630 ± 882 nM in assay [5]. Moreover, the EC50 in assay [2] was 16 nM and 15.9 nM; in assay [3], above 10000 nM; in assay [4] (setting [7]), 43.9 ± 22.2 nM. Besides, the maximal effect (Emax) was 97% in assay [2] and 17.4% in assay [4] (setting [6]). In assay [5], the “DOR Antagonist %Imax ± SEM” value was 109.3 ± 5.2%.

Compound `N[C@H]1[C@H]2CCC[C@]1(c1cccc(O)c1)CCN2CCc1ccccc1` [1R,5R,9R-23, 3-((1R,5R,9R)-9-Amino-2-phenethyl-2-azabicyclo[3.3.1]nonan-5-yl)phenol] yielded an IC50 in assay [1] above 10000 nM. Moreover, the EC50 in assay [2] is 26 nM and 26.1 nM; in assay [3] it was above 10000 nM; in assay [4] (setting [7]) it was 186 ± 12.5 nM. In addition, the Emax was 81% in assay [2] and 46.6% in assay [4] (setting [6]).

Take `CN[C@@H]1[C@H]2CCC[C@]1(c1cccc(O)c1)CCN2CCc1ccccc1` [1R,5R,9S-10, 3-((1R,5R,9S)-9-(Methylamino)-2-phenethyl-2-azabicyclo[3.3.1]nonan-5-yl)phenol]: in assay [2], the EC50 is 83 nM and 82.8 nM; the Emax worked out at 28%.

For the compound `N#CC[C@@H]1[C@H]2CCC[C@]1(c1cccc(O)c1)CCN2CCc1ccccc1` [1R,5S,9S-41, 2-((1R,5S,9S)-5-(3-Hydroxyphenyl)-2-phenethyl-2-azabicyclo[3.3.1]nonan-9-yl)acetonitrile], the EC50 in assay [2] is above 10000 nM.

`N#CC[C@H]1[C@H]2CCC[C@]1(c1cccc(O)c1)CCN2CCc1ccccc1` [1R,5S,9R-35, 2-((1R,5S,9R)-5-(3-hydroxyphenyl)-2-phenethyl-2-azabicyclo[3.3.1]nonan-9-yl)acetonitrile]: the figures for the IC50 in assay [1] and in assay [5] were above 10000 nM and 94.5 ± 29.5 nM, respectively. The EC50 in assay [2] was 0.85 nM; in assay [3], above 10000 nM; in assay [4] (setting [7]) it was 4 nM and 4.3 nM. For the same compound, the Emax in assay [2] is 99%; in assay [4] (setting [6]), 35%. In addition, the “DOR Antagonist %Imax ± SEM” value in assay [5] is listed as 35.1 ± 2.6%.

Consider `ON=C1[C@H]2CCC[C@]1(c1cccc(O)c1)CCN2CCc1ccccc1` [1R,5R-17, (1R,5R)-5-(3-Hydroxyphenyl)-2-phenethyl-2-azabicyclo[3.3.1]nonan-9-one oxime], for which the values for the 50% inhibitory concentration (IC50) in assay [1] and in assay [5] were above 10000 nM and 1080 ± 464 nM, respectively. Further, the EC50 was 22 nM and 22.1 nM in assay [2]; 146 ± 19 nM in assay [3]; 157 ± 72 nM in assay [4] (setting [7]). The Emax in assay [2] was 99%; in assay [3] it was 21.2%; in assay [4] (setting [6]), 32.2%. Moreover, the “DOR Antagonist %Imax ± SEM” value in assay [5] was determined as 66.5 ± 6.0%.

For `N[C@H]1[C@@H]2CCC[C@@]1(c1cccc(O)c1)CCN2CCc1ccccc1` [1S,5S,9R-3, 3-((1S,5S,9R)-9-Amino-2-phenethyl-2-azabicyclo[3.3.1]nonan-5-yl)phenol], the EC50 in assay [2] and in assay [3] was above 10000 nM throughout.

With `N[C@@H]1[C@H]2CCC[C@]1(c1cccc(O)c1)CCN2CCc1ccccc1` [1R,5R,9S-6, 3-((1R,5R,9S)-9-Amino-2-phenethyl-2-azabicyclo[3.3.1]nonan-5-yl)phenol], the IC50 in assay [1] and in assay [5] was above 10000 nM in each case. For the same compound, the EC50 is 24 nM in assay [2], above 10000 nM in assay [3] and 690 ± 188 nM in assay [4] (setting [7]). Moreover, the Emax is 91% in assay [2] and 39.4% in assay [4] (setting [6]).

As to `N#CC[C@@H]1[C@@H]2CCC[C@@]1(c1cccc(O)c1)CCN2CCc1ccccc1` [1S,5R,9S-34, 2-((1S,5R,9S)-5-(3-Hydroxyphenyl)-2-phenethyl-2-azabicyclo[3.3.1]nonan-9-yl)acetonitrile], in assay [1], the IC50 is above 10000 nM. Moreover, the EC50 in assay [2] was 27 nM and 27.3 nM; in assay [3], above 10000 nM; in assay [4] (setting [7]), 575 ± 127 nM. The values for the maximal effect (Emax) in assay [2] and in assay [4] (setting [6]) were 101% and 61.5%, respectively.

`Oc1ccc2c3c1O[C@H]1c4[nH]c5ccccc5c4C[C@@]4(O)[C@@H](C2)N(CC2CC2)CC[C@]314` [Naltrindole, reference compound]: the “DOR Antagonist %Imax ± SEM” value in assay [5] was 106.8 ± 4.8%.

Consider `N[C@@H]1[C@@H]2CCC[C@@]1(c1cccc(O)c1)CCN2CCc1ccccc1` [1S,5S,9S-22, 3-((1S,5S,9S)-9-Amino-2-phenethyl-2-azabicyclo[3.3.1]nonan-5-yl)phenol], for which, in assay [2], the EC50 was 94 nM and 94.1 nM; the Emax worked out at 53%.

Take `N#CC=C1[C@H]2CCC[C@]1(c1cccc(O)c1)CCN2CCc1ccccc1` [1R,5R-33, 2-((1R,5R)-5-(3-hydroxyphenyl)-2-phenethyl-2-azabicyclo[3.3.1]nonan-9-ylidene)acetonitrile]: the “MOR agonist potency relative to morphine (times more potent)” value in assay [2] is on record as “about three times”. In addition, the EC50 in assay [2] is 1.8 nM; in assay [3], above 10000 nM; in assay [4] (setting [7]), 8 nM and 8.1 nM. The Emax in assay [2] is 100%; in assay [3] it was above 50%; in assay [4] (setting [6]), 69%. In assay [4] (CHO-K1 cells expressing human DOR, normalized to the forskolin control), the “DOR Agonist %Emax ± SEM” value was found to be 69.3 ± 6.0%.

In the case of `N#CC=C1[C@@H]2CCC[C@@]1(c1cccc(O)c1)CCN2CCc1ccccc1` [1S,5S-28, 2-((1S,5S)-5-(3-Hydroxyphenyl)-2-phenethyl-2-azabicyclo[3.3.1]nonan-9-ylidene)acetonitrile], in assay [1], the 50% inhibitory concentration (IC50) is above 10000 nM. Further, the EC50 in assay [2] was 27 nM and 27.2 nM; in assay [3], above 10000 nM; in assay [4] (setting [7]), 1520 ± 385 nM. The maximal response (Emax) in assay [2] is 101%; in assay [4] (setting [6]) it was 51.4%.

`ON=C1[C@@H]2CCC[C@@]1(c1cccc(O)c1)CCN2CCc1ccccc1` [1S,5S-15, (1S,5S)-5-(3-Hydroxyphenyl)-2-phenethyl-2-azabicyclo[3.3.1]nonan-9-one oxime]: in assay [2], the EC50 came out at 229 nM and the Emax is 91%. The compound also registered an EC50 in assay [3] above 10000 nM.

Take `CN[C@H]1[C@@H]2CCC[C@@]1(c1cccc(O)c1)CCN2CCc1ccccc1` [1S,5S,9R-8, 3-((1S,5S,9R)-9-(Methylamino)-2-phenethyl-2-azabicyclo[3.3.1]nonan-5-yl)phenol]: the half-maximal effective concentration (EC50) in assay [2] and in assay [3] was above 10000 nM in each case.

Regarding `CNC[C@@H]1[C@H]2CCC[C@]1(c1cccc(O)c1)CCN2CCc1ccccc1` [1R,5S,9R-52, 3-((1R,5S,9R)-9-((Methylamino)methyl)-2-phenethyl-2-azabicyclo[3.3.1]nonan-5-yl)phenol], the EC50 in assay [2] was 43 nM and 43.3 nM; in assay [3], 210 ± 92 nM; in assay [4] (setting [7]) it was 502 ± 125 nM. Moreover, the Emax in assay [2] is 94%; in assay [3] it was 57%; in assay [4] (setting [6]), 62%.

Turning to `CNC[C@@H]1[C@@H]2CCC[C@@]1(c1cccc(O)c1)CCN2CCc1ccccc1` [1S,5R,9R-47, 3-((1S,5R,9R)-9-((Methylamino)methyl)-2-phenethyl-2-azabicyclo[3.3.1]nonan-5-yl)phenol], the concentration giving a half-maximal response (EC50) was 3.7 nM and 3.66 nM in assay [2]; 95.7 ± 17 nM in assay [3]; 416 ± 21.1 nM in assay [4] (setting [7]). In addition, the values for the Emax in assay [2], in assay [3] and in assay [4] (setting [6]) were 102%, 93.4% and 84.7%, respectively.

In the case of `N#CC[C@H]1[C@@H]2CCC[C@@]1(c1cccc(O)c1)CCN2CCc1ccccc1` [1S,5R,9R-38, 2-((1S,5R,9R)-5-(3-Hydroxyphenyl)-2-phenethyl-2-azabicyclo[3.3.1]nonan-9-yl)acetonitrile], the IC50 in assay [1] was found to be 44 ± 4 nM. Moreover, in assay [1] (CHO-K1 human KOR, versus EC90 of U50488H, Imax normalized to nor-BNI), the “KOR Antagonist %Imax ± SEM” value stood at 97 ± 0.1%. Besides, the “MOR agonist potency relative to morphine (times more potent)” value in assay [2] is recorded as “about twice”. Besides, the concentration for a half-maximal effect (EC50) in assay [2] is 2.5 nM; in assay [3], above 10000 nM; in assay [4] (setting [7]), 55 ± 3.9 nM. The Emax is 89.6% in assay [2] and 46.8% in assay [4] (setting [6]).

These data come from article PMC11085448 (Molecules, 2024).
